Values after ≈ are worked out from the molar mass of the structure shown.
Columns and labels:
Format in all cases: cell-based
[1] = system: Geobacillus stearothermophilus 111499 MERCK (ATCC 7953); test: Measurement of minimum inhibitory concentration, dilution method with liquid culture medium; conditions: ATCC7953, LB liquid medium, 60° C., 135 rpm, 18 hours, visual observation and OD600
Source text: The minimum inhibitory concentration (MIC) is one of the antibiotic susceptibility tests, and means the minimum concentration of an antimicrobial substance at which the visible growth of a microorganism can be inhibited. In the research field, the MIC measurement is used, for example, to compare the effects of a new antibiotic substance and a conventional substance, or to examine actions on several strains, and is regarded as an important criterion for evaluating antibiotic substances. The MIC of “HK-1” which was obtained hereunder as the antibacterial active substance was measured using the dilution method with a liquid culture medium.
A piece of ice out of a glycerol stock of G. stearothermophilus stored at −80° C. was planarly inoculated on the LB agar culture medium with a toothpick. This was incubated at 60° C. for 18 hours. One (1) cm^2 of the culture medium was excavated with a toothpick, placed into a long test tube containing 10 mL of a liquid LB culture medium, and subjected to a shaking culture at 60° C., and 300 rpm, for 18 hours. The culture solution was diluted with sterile water to about McF standard No. 1.
Two (2) mg of HK-1 was weighed out into a 2 mL Eppendorf tube using an electric balance. To this Eppendorf tube, 2 mL of methanol was added to dissolve the HK-1 to form a […] solution. The solution was filtrated through a sterilized […] filter. […]

[2] = system: Bacillus subtilis NBRC 3134^T; test: Heat resistance test B (storage), antibacterial activity as index; conditions: FIG. 4-2
Method: (§1) Examples of a typical test for measuring the stability of a compound include pH stability test, as well as heat resistance test, and storage test. This information is also regarded as important in evaluating the compound as described above. Using the sample of HK-1 prepared in the above “3. Antibacterial activity test in changing pH”, experiments were carried out to examine whether the compound is stable or not using G. stearothermophilus and B. subtilis guided by the antibacterial activity as the index.
(§2) One (1) mL each of two samples prepared in the above “3. Antibacterial activity test in changing pH” was dispensed into two 1-mL micro tubes. The openings of total four tubes were closed hermetically with parafilm, and each one is shielded with an aluminum foil, and stored in a freezer set at −28° C., or an incubator set at 28° C. and 50° C. Each sample was assayed 1, 3, 6, 12, and 24 days after the initiation of the storage using the culture medium for assaying antibacterial activity prepared in “3. Antibacterial activity test in changing pH” above.

[3] = system: Geobacillus stearothermophilus ATCC 7953; test: as above; conditions: FIG. 4-3
Method: as §1, §2

[4] = system: Bacillus subtilis NBRC 3134^T; test: Antibacterial spectrum test, paper disk assay; conditions: 50 μL of 1000 γ solution in methanol, LB agar, 37° C., 18 hours
Method: (§3) The antibacterial activity of HK-1 was assayed using a paper disk against the following bacterial bodies. A piece of ice was taken out of a glycerol stock of G. stearothermophilus stored at -80° C. and […] inoculated on the LB agar culture medium (see Example 1) with a toothpick. This was incubated at 60° C. for 18 hours. After the incubation, 1⁄2 platinum loop of the culture was harvested and suspended in 500 μL of sterile water. The bacterial suspension was diluted 10-fold with sterile water. Onto a LB agar culture medium, 100 μL of the diluted suspension was dropped and spread until it was dried up. A piece of paper disk was placed on a filter paper, onto which 50 μL of a HK-1 solution adjusted to 1000 γ with methanol was dropped and dried. Then the disk was placed on the agar culture medium coated with the bacterial body. After incubation at 60° C. for 18 hours, the diameter of the inhibition ring was measured. Assays were performed in the same manner as in 1 above, except that the incubation temperature was changed to 37° C.

[5] = system: Escherichia coli NBRC 102203^T; test: Antibacterial spectrum test, paper disk assay; conditions: 50 μL of 1000 γ solution in methanol, LB agar, 37° C., 18 hours
Method: as §3

Streptomyces sp. AGRN-9 = test: Antibacterial spectrum test, paper disk assay; conditions: 50 μL of 1000 γ solution in methanol, BM medium, 45° C., 2 days
Method: (§4) The antibacterial activity of HK-1 was assayed using a paper disk against the following bacterial bodies.
(§5) A piece of ice out of a glycerol stock of S. griseus stored at −80° C. was planarly inoculated on the YMPD agar culture medium with a toothpick. This was incubated at 28° C. for 5 days. After the incubation, a small amount of spore was scraped off with a swab, and planarly inoculated on the YMPD culture medium. A piece of paper disk was placed on a filter paper, onto which 50 μL of a HK-1 solution adjusted to 1000 γ with methanol was dropped and dried. Then the disk was placed on the agar culture medium coated with the bacterial body. After incubation at 28° C. for 4 days, the diameter of the inhibition ring was measured.
(§6) Assays were performed in the same manner as in 3 above, except that the incubation conditions were changed to BM culture medium, 45° C., and 2-day period.

Streptomyces sp. AGRN-8 = test: Antibacterial spectrum test, paper disk assay; conditions: 50 μL of 1000 γ solution in methanol, BM medium, 45° C., 2 days
Method: as §4, §5, §6

[6] = pH not adjusted, storage at −28° C., 28° C., 50° C., 1 to 24 days
[7] = two samples (pH 9, pH not adjusted), stored at −28° C., 28° C. and 50° C., after 24 days

MIC [1]: 0.78 µg/mL (≈ 0.474 µM) | difference in antibacterial activity due to the storage temperature [2, 6]: no significant difference | antibacterial activity after storage [2, 7]: not lost | difference in antibacterial activity due to the storage temperature [3, 6]: no significant difference | antibacterial activity after storage [3, 7]: not lost
SMILES: COc1cc(OOc2cc(OC)c3c(c2-c2c(O)c(Cl)c(C)c4c2C(O)c2c(Cl)c(O)cc(O)c2C4=O)C(OC2OC(C)C(O)C2O)c2c(Cl)c(OC)c(Cl)c(C)c2C3=O)c(-c2c(O)c(Cl)c(C)c3c2C(O)c2c(Cl)c(O)cc(O)c2C3=O)c2c1C(=O)c1c(C)c(Cl)c(OC)c(Cl)c1C2OC1OC(C)C(O)C1O (stereo not drawn) [HK-1]
inhibition ring diameter [4]: 32.0 mm | inhibition ring diameter [5]: 14.0 mm | inhibition ring diameter (Streptomyces sp. AGRN-9): 19.0 mm | inhibition ring diameter (Streptomyces sp. AGRN-8): 16.0 mm
